Laboratory results from US20130324412A1, “N-ALKOXYAMIDES OF 6-(SUBSTITUTED PHENYL)-4-AMINOPICOLINATES AND 2-(SUBSTITUTED PHENYL)-6-AMINO-4-PYRIMIDINECARBOXYLATES AND THEIR USE AS SELECTIVE HERBICIDES FOR CROPS” (DOW AGROSCIENCES LLC, priority 2009, published 2013).

Legend:
Type in all cases: in vivo
[1] = tested on: pigweed, redroot (Amaranthus retroflexus); assay: Postemergence herbicidal activity in corn, redroot pigweed; settings: corn test, visual rating after 21 d, probit analysis, dose to kill or control 80 percent
Description: (§1) Seeds of corn and the desired weed species were planted in Sun Gro MetroMix 360 planting mixture, which typically has a pH of 6.0 to 6.8 and an organic matter content of about 30 percent, in plastic pots with a surface area of 95 cm^2. When required to ensure good germination and healthy plants, a fungicide treatment and/or other chemical or physical treatment was applied. The plants were grown for 7-21 d in a greenhouse with an approximate 15-h photoperiod which was maintained at about 23-29° C. during the day and 22-28° C. during the night. Nutrients and water were added on a regular basis and supplemental lighting was provided with overhead metal halide 1000-Watt lamps as necessary. The corn plants were utilized for testing when they reached the second true leaf stage. The weed species were utilized at the first or second true leaf stage.
A weighed amount, determined by the highest rate to be tested, of each test compound was dissolved in 4 mL of a 97:3 v/v mixture of acetone and DMSO to obtain concentrated stock solutions. […] The concentrated stock solutions obtained were diluted with 20 mL of an aqueous mixture containing acetone, water, isopropyl alcohol, DMSO, Atplus 411F crop oil concentrate, and Triton X-155 surfactant in a 48.5:39:10:1.5:1.0:0.02 v/v ratio to obtain spray solutions containing the highest application rates. […]
(§2) The treated plants and control plants were placed in a greenhouse as described above and watered by sub-irrigation to prevent wash-off of the test compounds. After 21 d, the condition of the test plants as compared with that of the untreated plants was determined visually and scored on a scale of 0 to 100 percent where 0 corresponds to no injury and 100 corresponds to complete kill. […]

[2] = tested on: winter oilseed rape (canola) (Brassica napus); assay: Postemergence herbicidal activity in oilseed rape (canola), crop; set-up: unit not given here; settings: visual rating after 21 d, probit analysis, dose to kill or control 20 percent
Description: as §1, with “oilseed rape (canola)” for “corn”, “MetroMix®” for “MetroMix”, “15-28” for “7-21”, “third or fourth” for “second”, “fourth” for “first or second”
(§3) A weighed amount, determined by the highest rate to be tested, of each test compound was dissolved in 4 mL of a 97:3 v/v mixture of acetone and DMSO to obtain concentrated stock solutions. […] The concentrated stock solutions obtained were diluted with 20 mL of an aqueous mixture containing acetone, water and Agri-Dex crop oil concentrate, in a 16.7:82.1:1.25 v/v ratio to obtain spray solutions containing the highest application rates. Additional application rates were obtained by serial dilution of 12 mL of the high rate solution into a solution containing 2 mL of 97:3 v/v mixture of acetone and DMSO and 10 mL of an aqueous mixture containing acetone, water and Agri-Dex crop oil concentrate, in a 16.7:82.1:1.25 v/v ratio to obtain ½×, ¼×, ⅛× and 1/16× rates of the high rate. Compound requirements are based upon a 12 mL application volume at a rate of 187 L/ha. Formulated compounds were applied to the plant material with an overhead Mandel track sprayer equipped with 8002E nozzles calibrated to deliver 187 L/ha over an application area of 0.503 m^2 at a spray height of 18 inches (43 cm) above the average plant canopy height. Control plants were sprayed in the same manner with the solvent blank.
(§4) The treated plants and control plants were placed in a greenhouse as described above and watered by sub-irrigation to prevent wash-off of the test compounds. After 21 d, the condition of the test plants as compared with that of the untreated plants was determined visually and scored on a scale of 0 to 100 percent where 0 corresponds to no injury and 100 corresponds to complete kill.
(§5) By applying the well-accepted probit analysis as described by J. Berkson in Journal of the American Statistical Society 1953, 48, 565, and by D. Finney in “Probit Analysis” Cambridge University Press (1952), the above data can be used to calculate GR20 and GR80 values, which are defined as growth reduction factors that correspond to the effective dose of herbicide required to kill or control 20 percent or 80 percent, respectively, of a target plant.

[3] = tested on: lambsquarters (Chenopodium album); assay: Postemergence herbicidal activity in oilseed rape (canola), lambsquarters; set-up: unit: g ai/ha; settings: oilseed rape (canola) test, visual rating after 21 d, probit analysis, dose to kill or control 80 percent
Description: as §1, with “oilseed rape (canola)” for “corn”, “MetroMix®” for “MetroMix”, “15-28” for “7-21”, “third or fourth” for “second”, “fourth” for “first or second”
as §3, §4, §5

[4] = tested on: sugar beet (Beta vulgaris); assay: Postemergence herbicidal activity in sugar beet, crop; set-up: unit not given here; settings: visual rating after 21 d, probit analysis, dose to kill or control 20 percent
Description: as §1, with “sugar beet” for “corn”, “MetroMix®” for “MetroMix”, “15-28” for “7-21”, “third or fourth” for “second”, “fourth” for “first or second”
as §3, §4, §5

[5] = tested on: lambsquarters (Chenopodium album); assay: Postemergence herbicidal activity in sugar beet, lambsquarters; set-up: unit not given here; settings: sugar beet test, visual rating after 21 d, probit analysis, dose to kill or control 80 percent
Description: as §1, with “sugar beet” for “corn”, “MetroMix®” for “MetroMix”, “15-28” for “7-21”, “third or fourth” for “second”, “fourth” for “first or second”
as §3, §4, §5

[6] = tested on: purple deadnettle (Lamium purpureum); assay: Postemergence herbicidal activity in sugar beet, purple deadnettle; set-up: unit not given here; settings: sugar beet test, visual rating after 21 d, probit analysis, dose to kill or control 80 percent
Description: as §1, with “sugar beet” for “corn”, “MetroMix®” for “MetroMix”, “15-28” for “7-21”, “third or fourth” for “second”, “fourth” for “first or second”
as §3, §2

Structure (SMILES)	AMARE GR80 [1] [g ai/ha]	BRSNW GR20 [2]	CHEAL GR80 [3]	BEAVA GR20 [4]	CHEAL GR80 [5]	LAMPU GR80 [6]
COc1c(Cl)ccc(-c2cc(N)c(Cl)c(C(=O)NOCC(C)C)n2)c1F [Compound 1, 4-amino-3-chloro-6-(4-chloro-2-fluoro-3-methoxyphenyl)-N-(2-methylpropoxy)picolinamide]	14	>70	<8.75			
CONC(=O)c1nc(-c2ccc(Cl)c(OC)c2F)cc(N)c1Cl [Compound 2, 4-Amino-3-chloro-6-(4-chloro-2-fluoro-3-methoxyphenyl)-N-methoxypicolinamide]	<4	>70	22	>35	21.5	<4.38
